Reference: patent US20240228488A1 (TAKEDA PHARMACEUTICAL COMPANY LIMITED, priority 2021, published 2024)
pEC50: −log10 of the molar value. Where two headings read alike, the source gives them in different places.

What was measured:
[1] = target: human activated kallikrein enzyme (Homo sapiens, UniProt P03952); experiment: Plasma kallikrein inhibition, fluorogenic PFR-AMC substrate, 500 pM activated kallikrein format; type: biochemical; details: 300 uM PFR-AMC, 30 min preincubation, 10 min reaction
Chain of human activated kallikrein enzyme (P03952 391-638 limits assumed): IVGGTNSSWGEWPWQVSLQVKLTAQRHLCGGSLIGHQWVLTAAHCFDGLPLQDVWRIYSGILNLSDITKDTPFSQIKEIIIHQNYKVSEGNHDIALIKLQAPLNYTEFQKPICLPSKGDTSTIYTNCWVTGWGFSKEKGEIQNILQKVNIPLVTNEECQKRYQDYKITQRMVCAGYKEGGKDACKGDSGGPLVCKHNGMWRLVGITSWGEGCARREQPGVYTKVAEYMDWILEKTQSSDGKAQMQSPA
Chain of human activated kallikrein enzyme (P03952 20-390 partner limits assumed): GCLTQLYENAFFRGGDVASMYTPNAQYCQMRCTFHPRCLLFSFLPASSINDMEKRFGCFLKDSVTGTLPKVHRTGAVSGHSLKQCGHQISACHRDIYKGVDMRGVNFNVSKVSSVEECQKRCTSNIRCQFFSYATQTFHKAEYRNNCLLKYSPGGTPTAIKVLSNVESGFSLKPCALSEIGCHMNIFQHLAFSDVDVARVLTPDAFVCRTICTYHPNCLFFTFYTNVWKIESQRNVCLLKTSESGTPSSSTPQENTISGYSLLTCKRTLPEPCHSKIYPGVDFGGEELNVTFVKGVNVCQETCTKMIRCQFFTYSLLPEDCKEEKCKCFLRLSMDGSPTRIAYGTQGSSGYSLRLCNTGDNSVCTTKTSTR
Outline: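 500 pM enz + cpd, 30 min RT preinc; start w/ PFR-AMC 300 uM; 10 min RT; Ex380/Em460. Buffer: Tris 20 mM pH 7.5, EDTA 1 mM, NaCl 150 mM, PEG-400 0.1%, Triton 0.1%. EC50.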

plasma kallikrein = target: T1, plasma kallikrein (Homo sapiens, UniProt P03952); experiment: Neat human plasma assay, FXIIa contact pathway-activated, PFR-AMC substrate; type: biochemical; details: read-out: Human Plasma Assay: IC90
T1 construct: from tissue
T1 sequence (P03952 391-638 limits assumed): as the sequence (P03952 391-638 limits assumed) above
T1 sequence (P03952 20-390 partner limits assumed): as the sequence (P03952 20-390 partner limits assumed) above
Outline: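 Citrated human plasma (78% final) with compound, contact-activated by 10 nM human FXIIa in pKal buffer pH 7.5, with 100 μM PFR-AMC. Fluorescence (360/480 nm) followed 5 min at room temperature; rates versus concentration fitted by 4-parameter equation for IC50/IC90.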

[2] = 500 pM activated kallikrein, read-out: Primary Dose Response Assay: Average EC50
[3] = citrated human plasma 78% final, 10 nM human FXIIa, 100 μM PFR-AMC

Row | pEC50 [1, 2] | IC90 (plasma kallikrein; [3]) [nM] | Structure (SMILES) | pEC50 ([1]; Primary Dose Response Assay: Average EC50, 500 pM activated kallikrein) | IC90 (plasma kallikrein) [nM]
1 | > 9.00 | 1500 to 10000 | Cc1ccnc([C@H]2C[C@@H]2C(=O)Nc2nc(NCc3cn4cc(C5CC5)cc(N5CC(=O)N(C)C5=O)c4n3)cc(C3CC3)n2)n1 (racemic) [Example 539, rac-(1S*,2S*)—N-(4-cyclopropyl-6-(((6-cyclopropyl-8-(3-methyl-2,4-dioxoimidazolidin-1-yl)imidazo[1,2-a]pyridin-2-yl)methyl)amino)pyrimidin-2-yl)-2-(4-methylpyrimidin-2-yl)cyclopropane-1-carboxamide] |  | 
2 | > 9.00 | < 400 | O=C(Nc1cc(NCc2cn3cc(C4CC4)cc(N4CC5CC5C4=O)c3n2)ncn1)[C@H]1C[C@@H]1c1cc(Cl)ccn1 (stereo partly drawn) [Example 327, (1S,2S)-2-(4-chloropyridin-2-yl)-N-(6-(((6-cyclopropyl-8-(2-oxo-3-azabicyclo[3.1.0]hexan-3-yl)imidazo[1,2-a]pyridin-2-yl)methyl)amino)pyrimidin-4-yl)cyclopropane-1-carboxamide] |  | 
3 | 8.00 to 9.00 | 1500 to 10000 | O=C(Nc1cc(NCc2cn3cc(C4CC4)cc(N4C[C@@H](O)CC4=O)c3n2)ncn1)[C@H]1C[C@@H]1c1cccc(Cl)c1 (relative stereo) [Example 62, (rac-(1S*,2S*))-2-(3-chlorophenyl)-N-(6-(((6-cyclopropyl-8-((S)-4-hydroxy-2-oxopyrrolidin-1-yl)imidazo[1,2-a]pyridin-2-yl)methyl)amino)pyrimidin-4-yl)cyclopropane-1-carboxamide] |  | 
4 | > 9.00 | 1500 to 10000 | O=C(Nc1cc(N2C[C@@H](O)C[C@@H]2c2cn3cc(C4CC4)ccc3n2)ncn1)[C@H]1C[C@@H]1c1nccc(Cl)n1 (relative stereo) [Example 481, rac-(1S*,2S*)-2-(4-chloropyrimidin-2-yl)-N-(6-((2R,4S)-2-(6-cyclopropylimidazo[1,2-a]pyridin-2-yl)-4-hydroxypyrrolidin-1-yl)pyrimidin-4-yl)cyclopropane-1-carboxamide] |  | 
5 | > 9.00 | 400 to 1500 | CN1C(=O)CN(c2cc(C3CC3)cn3cc([C@H]4C[C@H](O)CN4c4cc(NC(=O)[C@H]5C[C@@H]5c5cc(Cl)ccn5)ncn4)nc23)C1=O [Example 478, (1S,2S)-2-(4-chloropyridin-2-yl)-N-(6-((2R,4S)-2-(6-cyclopropyl-8-(3-methyl-2,4-dioxoimidazolidin-1-yl)imidazo[1,2-a]pyridin-2-yl)-4-hydroxypyrrolidin-1-yl)pyrimidin-4-yl)cyclopropane-1-carboxamide] |  | 
6 | > 9.00 | < 400 | O=C(Nc1cc(NCc2cn3cc(C4CC4)cc(C4(O)CNC4)c3n2)ccn1)[C@H]1C[C@@H]1c1cccc(Cl)c1 [Example 134, (1S,2S)-2-(3-chlorophenyl)-N-(4-(((6-cyclopropyl-8-(3-hydroxyazetidin-3-yl)imidazo[1,2-a]pyridin-2-yl)methyl)amino)pyridin-2-yl)cyclopropane-1-carboxamide] |  | 
7 | > 9.00 | 400 to 1500 | CN1CCN(c2cc(C3CC3)cn3cc(CNc4cc(NC(=O)[C@H]5C[C@@H]5c5cccc(Cl)c5)ncn4)nc23)CC1 [Example I-2, (1S,2S)-2-(3-chlorophenyl)-N-(6-(((6-cyclopropyl-8-(4-methylpiperazin-1-yl)imidazo[1,2-a]pyridin-2-yl)methyl)amino)pyrimidin-4-yl)cyclopropane-1-carboxamide] |  | 
8 | > 9.00 | < 400 | CCN1CCN(c2cc(C3CC3)cn3cc(CNc4cc(NC(=O)[C@H]5C[C@@H]5c5nccc(C)n5)ncn4)nc23)CC1 [Example 383, (1S,2S)-N-(6-(((6-cyclopropyl-8-(4-ethylpiperazin-1-yl)imidazo[1,2-a]pyridin-2-yl)methyl)amino)pyrimidin-4-yl)-2-(4-methylpyrimidin-2-yl)cyclopropane-1-carboxamide] |  | 
9 | > 9.00 | < 400 | Cc1ccnc([C@H]2C[C@@H]2C(=O)Nc2cc(OCc3cn4cc(C5CC5)cc(N5CC(=O)NC5=O)c4n3)ncn2)n1 [Example 32, (1S,2S)—N-(6-((6-cyclopropyl-8-(2,4-dioxoimidazolidin-1-yl)imidazo[1,2-a]pyridin-2-yl)methoxy)pyrimidin-4-yl)-2-(4-methylpyrimidin-2-yl)cyclopropane-1-carboxamide] |  | 
10 | > 9.00 | 1500 to 10000 | Cc1ccnc([C@H]2C[C@@H]2C(=O)Nc2cc(N3C[C@@H](O)C[C@@H]3c3cn4cc(C5CC5)ccc4n3)ncn2)n1 (relative stereo) [Example 476, rac-(1S*,2S*)-N-(6-((2R,4S)-2-(6-cyclopropylimidazo[1,2-a]pyridin-2-yl)-4-hydroxypyrrolidin-1-yl)pyrimidin-4-yl)-2-(4-methylpyrimidin-2-yl)cyclopropane-1-carboxamide] |  | 
11 | > 9.00 | < 400 | CNCCc1cc(C2CC2)cn2cc(CNc3ccnc(NC(=O)[C@H]4C[C@@H]4c4cccc(Cl)c4)c3)nc12 [Example 607, (1S,2S)-2-(3-chlorophenyl)-N-(4-(((6-cyclopropyl-8-(2-(methylamino)ethyl)imidazo[1,2-a]pyridin-2-yl)methyl)amino)pyridin-2-yl)cyclopropane-1-carboxamide] |  | 
12 | > 9.00 | 400 to 1500 | Cc1ccc(F)c([C@H]2C[C@@H]2C(=O)Nc2cc(NCc3cn4cc(C5CC5)cc(N5CC(=O)N(C)C5=O)c4n3)ncn2)n1 (racemic) [Example 502, rac-(1S*,2S*)-N-(6-(((6-cyclopropyl-8-(3-methyl-2,4-dioxoimidazolidin-1-yl)imidazo[1,2-a]pyridin-2-yl)methyl)amino)pyrimidin-4-yl)-2-(3-fluoro-6-methylpyridin-2-yl)cyclopropane-1-carboxamide] |  | 
13 | > 9.00 | 400 to 1500 | Cc1ccnc([C@H]2C[C@@H]2C(=O)Nc2cc(NCc3cn4cc(C5CC5)cc(N5CC(=O)N(CC(F)(F)F)C5=O)c4n3)ncn2)n1 (racemic) [Example 388, rac-(1S*,2S*)-N-(6-(((6-cyclopropyl-8-(2,4-dioxo-3-(2,2,2-trifluoroethyl)imidazolidin-1-yl)imidazo[1,2-a]pyridin-2-yl)methyl)amino)pyrimidin-4-yl)-2-(4-methylpyrimidin-2-yl)cyclopropane-1-carboxamide] |  | 
14 | 8.00 to 9.00 | 10000 to 48000 | CC(O)c1cc(C2CC2)cn2cc(CNc3cc(NC(=O)[C@H]4C[C@@H]4c4cccc(Cl)c4)ncn3)nc12 (stereo partly drawn) [Example 281, (1S,2S)-2-(3-chlorophenyl)-N-(6-(((6-cyclopropyl-8-(1-hydroxyethyl)imidazo[1,2-a]pyridin-2-yl)methyl)amino)pyrimidin-4-yl)cyclopropane-1-carboxamide] |  | 
15 | 8.00 to 9.00 | 400 to 1500 | CN1C(=O)CN(c2cc(C3CC3)cn3cc(CNc4cc(NC(=O)[C@H]5C[C@@H]5c5nccc(C(F)F)n5)ncn4)nc23)C1=O (racemic) [Example I-164, rac-(1S*,2S*)-N-(6-(((6-cyclopropyl-8-(3-methyl-2,4-dioxoimidazolidin-1-yl)imidazo[1,2-a]pyridin-2-yl)methyl)amino)pyrimidin-4-yl)-2-(4-(difluoromethyl)pyrimidin-2-yl)cyclopropane-1-carboxamide] |  | 
16 | > 9.00 | < 400 | Cc1cc(NC(=O)[C@H]2C[C@@H]2c2nccc(C)n2)cc(NCc2cn3cc(C4CC4)cc(N4CC(=O)N(C)C4=O)c3n2)n1 [Example I-639, (1S,2S)—N-(2-(((6-cyclopropyl-8-(3-methyl-2,4-dioxoimidazolidin-1-yl)imidazo[1,2-a]pyridin-2-yl)methyl)amino)-6-methylpyridin-4-yl)-2-(4-methylpyrimidin-2-yl)cyclopropane-1-carboxamide] |  | 
17 | > 9.00 | 400 to 1500 | CN(c1cc(C2CC2)cn2cc(CNc3ccnc(NC(=O)[C@H]4C[C@@H]4c4cccc(Cl)c4)c3)nc12)S(C)(=O)=O [Example 128, (1S,2S)-2-(3-chlorophenyl)-N-(4-(((6-cyclopropyl-8-(N-methylmethylsulfonamido)imidazo[1,2-a]pyridin-2-yl)methyl)amino)pyridin-2-yl)cyclopropane-1-carboxamide] |  | 
18 |  |  | Cc1ccnc([C@H]2C[C@@H]2C(=O)Nc2cc(N[C@H](C)c3cn4cc(CF)cc(N5CC(=O)N(C)C5=O)c4n3)ncn2)n1 [Example 678, (1S,2S)—N-(6-(((R)-1-(6-(fluoromethyl)-8-(3-methyl-2,4-dioxoimidazolidin-1-yl)imidazo[1,2-a]pyridin-2-yl)ethyl)amino)pyrimidin-4-yl)-2-(4-methylpyrimidin-2-yl)cyclopropane-1-carboxamide] | > 9.00 | < 400
19 | 8.00 to 9.00 | 400 to 1500 | O=C(Nc1cc(NCc2cn3cc(C4CC4)cc(N4C[C@@H]5C[C@@H]5C4=O)c3n2)ncn1)[C@H]1C[C@@H]1c1cccc(Cl)c1 (racemic) [Example 457, rac-(1S,2S)-2-(3-chlorophenyl)-N-(6-(((6-cyclopropyl-8-((1R*,5S*)-2-oxo-3-azabicyclo[3.1.0]hexan-3-yl)imidazo[1,2-a]pyridin-2-yl)methyl)amino)pyrimidin-4-yl)cyclopropane-1-carboxamide] |  | 
20 | 8.00 to 9.00 | 1500 to 10000 | CC(=O)Nc1cc(C2CC2)cn2cc(CNc3cc(NC(=O)[C@H]4C[C@@H]4c4cccc(Cl)c4)ncn3)nc12 [Example 275, (1S,2S)—N-(6-(((8-acetamido-6-cyclopropylimidazo[1,2-a]pyridin-2-yl)methyl)amino)pyrimidin-4-yl)-2-(3-chlorophenyl)cyclopropane-1-carboxamide] |  | 
